These results are taken from ChEMBL document CHEMBL1158728, “Makaluvic acids from the South African latrunculid sponge Strongylodesma aliwaliensis” (J Nat Prod, 2005).

The assay can be described thus: Cytotoxicity against human WHCO1 cells after 48 hrs by MTT assay. It is filed as functional, cell-based. As to conditions: WHCO1, 48 h.
`NC1=CC2=NCCc3cn([C@@H]4O[C@H](CO)[C@@H](O)[C@H]4O)c(c32)C1=O` had an IC50 of 1.6 µM.
`O=C1C=C2NCCc3c[nH]c(c32)C1=O` [DAMIRONE C]: it took 56 µM to reach half-maximal inhibition (IC50).
Then `O=C(O)c1[nH]cc2c1C(=O)NCC2` [MAKALUVIC ACID C], with more than 150 µM; and `O=C1C(N/C=C/c2ccc(O)cc2)=CC2=NCCc3c[nH]c1c32` [MAKALUVAMINE M], with 0.7 µM; and `O=C1NCCc2cn([C@@H]3O[C@H](CO)[C@@H](O)[C@H]3O)c(C(=O)O)c21`, with 61 µM.
Then `O=C1C=C2NCCc3cn([C@@H]4O[C@H](CO)[C@@H](O)[C@H]4O)c(c32)C1=O`, with 38 µM.
